Test results: patent US12162867B2, “Inhibitors of RNA helicase DHX9 and uses thereof” (ACCENT THERAPEUTICS, INC., priority 2022, dated 2024)
Read-outs that look alike come from different tables or passages of the source.

How the values were obtained:
Format in all cases: cell-based
[1] = tested on: circBRIP1 in HCT116 cells; test: DHX9 circBRIP1 cellular target engagement SYBR Green assay (qPCR); conditions: Homo sapiens, HCT-116, circBRIP1, HCT116 cells; ^+ SyBr assay was used; read-out: DHX9 Cellular Target Engagement EC50
NCI-H747 cells = test: DHX9 cellular proliferation assay (CellTiter-Glo), NCI-H747 (CRC-MSS); conditions: Homo sapiens, performed at Pharmaron, read-out: H747 (CRC-MSS) Antiproliferative IC50
LS411N cells = test: DHX9 cellular proliferation assay (CellTiter-Glo), LS411N (CRC-MSI); conditions: Homo sapiens, LS-411N, LS411N, performed at Pharmaron, read-out: LS411N (CRC-MSI-H) Antiproliferative IC50
[2] = tested on: circBRIP1 in HCT116 cells; test: DHX9 circBRIP1 cellular target engagement TaqMan Multiplex assay (qPCR); conditions: Homo sapiens
[3] = HCT-116, circBRIP1, HCT116 cells, * Taqman assay was used, read-out: DHX9 Cellular Target Engagement EC50
[4] = HCT-116, 72 h, circBRIP1, HCT116 cells, 72 hours, Taqman assay (marked *), read-out: DHX9 Cellular Target Engagement EC50
[5] = HCT-116, read-out: DHX9 Cellular Target Engagement EC50 (μM)

EC50 [2, 3] [µM] | Structure (SMILES) | also measured
 | COCCOc1ccc(-n2cc(C(=O)Nc3cc(Cl)cc(NS(C)(=O)=O)c3)cc2C)nc1 [Example 442] | EC50 [1]: 46 nM; IC50 (NCI-H747 cells; NCI-H747, NCI-H747): > 10 µM; IC50 (LS411N cells): 123 nM
 | CS(=O)(=O)Nc1cc(Cl)cc(NC(=O)c2cnn(-c3ncccc3OCc3cc(F)cc(F)c3)c2)c1 [Example 187] | IC50 (NCI-H747 cells; NCI-H747, NCI-H747, CRC-MSS): > 10 µM; IC50 (LS411N cells; CRC-MSI-H): 77.3 nM
 | Cc1sc(C(=O)Nc2cc(Cl)cc(NS(C)(=O)=O)c2)cc1-c1ncc(N2CC(C(F)(F)F)C2)cc1F [Example 460, N-(3-chloro-5-(methylsulfonamido)phenyl)-4-(3-fluoro-5-(3-(trifluoromethyl)azetidin-1-yl)pyridin-2-yl)-5-methylthiophene-2-carboxamide] | IC50 (NCI-H747 cells; NCI-H747, NCI-H747): 3.8 µM
> 10 | Cn1cc(C(=O)Nc2cc(Cl)cc(NS(=O)(=O)C3CC3)c2)cc1-c1ccc(N2CC(F)(F)C2)cn1 [Example 530] | 
1.01 | Cn1cc(C(=O)Nc2cc(Cl)cc(NS(C)(=O)=O)c2)cc1-c1ncc(F)cc1OCc1nnnn1C [Example 625] | 
> 10 | Cc1sc(C(=O)Nc2cc(Cl)cc(NS(C)(=O)=O)c2)nc1-c1ccc(F)cn1 [Example 716] | 
 | Cc1sc(C(=O)Nc2cc(Cl)cc(NS(C)(=O)=O)c2)cc1-c1ncc(C(F)(F)F)cc1C#N [Example 367] | EC50 [2, 4]: 0.219 µM
0.16 | Cc1cc(C(=O)Nc2cc(Cl)cc(NS(C)(=O)=O)c2)cn1-c1ncc(F)cc1F [Example 444] | 
 | CS(=O)(=O)Nc1cc(Cl)cc(NC(=O)c2cc(-c3ncc(C(F)(F)F)cc3F)cs2)c1 [Example 371] | EC50 [2, 4]: 0.311 µM
0.124 | Cc1cc(C(=O)Nc2cc(Cl)cc(NS(C)(=O)=O)c2)cn1-c1ccc(OC(C)(C)C)cn1 [Example 663] | 
0.625 | Cc1noc(C)c1COc1cc(F)cnc1-c1cc(C(=O)Nc2cc(Cl)cc(NS(C)(=O)=O)c2)cn1C [Example 725] | 
0.32 | Cn1cc(C(=O)Nc2cc(Cl)cc(NS(C)(=O)=O)c2)cc1-c1ncc(F)cc1OCc1cnnn1C [Example 726] | 
0.192 | Cc1cc(F)cnc1-c1cc(C(=O)Nc2cc(Cl)cc(NS(C)(=O)=O)c2)cn1C [Example 545] | 
 | Cc1sc(C(=O)Nc2cc(Cl)cc(NS(C)(=O)=O)c2)cc1-c1ncc(C(F)(F)F)cn1 [Example 357] | EC50 [2, 4]: 0.119 µM
 | CCS(=O)(=O)Nc1cc(Cl)cc(NC(=O)c2cc(-c3ncc(C(F)(F)F)cn3)c(C)s2)c1 [Example 366] | EC50 [2, 4]: 0.128 µM
 | CCS(=O)(=O)Nc1cc(Cl)cc(NC(=O)c2cc(-c3ncc(F)cc3Cl)c(C)s2)c1 [Example 355] | EC50 [2, 4]: 0.362 µM
0.133 | Cc1cc(C(=O)Nc2cc(Cl)cc(NS(C)(=O)=O)c2)cn1-c1ccc(N2CCOC2=O)cn1 [Example 416] | 
0.161 | Cc1cc(C(=O)Nc2cc(Cl)cc(NS(C)(=O)=O)c2)cn1-c1ncc(N2CC(F)(F)C2)cc1Cl [Example 406] | 
1.68 | Cn1cc(C(=O)Nc2cc(Cl)cc(NS(=O)(=O)CCO)c2)cc1-c1ncc(F)cc1F [Example 581] | 
> 10 | Cc1cccnc1-c1csc(C(=O)Nc2cc(Cl)cc(NS(C)(=O)=O)c2)c1C [Example 684] | 
0.0431 | Cc1sc(C(=O)Nc2cc(Cl)cc(NS(C)(=O)=O)c2)cc1-c1ncc(O)cn1 [Example 583] | 

EC50 [2, 3] [µM] | Structure (SMILES) | also measured
 | Cn1cc(C(=O)Nc2cc(Cl)cc(NS(C)(=O)=O)c2)cc1-c1ncc(N2CC[Si](C)(C)CC2)cc1F [Example 470] | EC50 [2, 5]: 0.62 µM
0.158 | Cc1cc(N2CC(F)(F)C2)cnc1-c1cc(C(=O)Nc2cc(Cl)cc(NS(C)(=O)=O)c2)cn1C [Example 461] | 
0.0137 | Cc1sc(C(=O)Nc2cc(Cl)cc(NS(C)(=O)=O)c2)cc1-c1ncc(OC(C)CO)cn1 (stereo not shown) [Example 677] | 
0.253 | Cc1sc(C(=O)Nc2cc(Cl)cc(NS(=O)(=O)CCO)c2)cc1-c1ncc(N2CC(C(F)(F)F)C2)cc1F [Example 529] | 
0.329 | Cn1cc(C(=O)Nc2cc(Cl)cc(NS(C)(=O)=O)c2)cc1-c1ncc(OC2CN(C(=O)C3CC3)C2)cc1F [Example 697] | 
0.0945 | CN1CC[C@H](Oc2cnc(-c3cc(C(=O)Nc4cc(Cl)cc(NS(C)(=O)=O)c4)cn3CC(F)(F)F)nc2)C1 [Example 642] | 
 | Cc1sc(C(=O)Nc2cc(Cl)cc(NS(C)(=O)=O)c2)cc1-c1ncc(N2CC[Si](C)(C)CC2)cc1F [Example 473] | EC50 [2, 5]: 0.426 µM
0.133 | CC(C)Oc1cc(N2CC(F)(F)C2)cnc1-c1cc(C(=O)Nc2cc(Cl)cc(NS(C)(=O)=O)c2)cn1C [Example 513] | 
0.196 | CN1CC(Oc2cnc(-c3cc(C(=O)Nc4cc(Cl)cc(NS(C)(=O)=O)c4)cn3CC(F)F)nc2)C1 [Example 679] | 
0.128 | Cc1cc(C(=O)Nc2cc(Cl)cc(NS(C)(=O)=O)c2)cn1-c1ncc(N2CCC3(C2)CC3(F)F)cc1F (stereo not shown) [Example 414] | 
0.177 | Cc1cc(C(=O)Nc2cc(Cl)cc(NS(C)(=O)=O)c2)cn1-c1ncc(N2CCC(F)(F)C2)cn1 [Example 409] | 
 | COc1cnc(-c2cc(C(=O)Nc3cc(Cl)cc(NS(C)(=O)=O)c3)sc2C)c(Cl)c1 [Example 364] | EC50 [2, 4]: 0.387 µM
 | Cc1cccnc1-c1csc(C(=O)Nc2cc(Cl)cc(NS(=O)(=O)C(C)C)c2)c1 [Example 373] | EC50 [2, 4]: 0.506 µM
0.319 | CCS(=O)(=O)Nc1cc(Cl)cc(NC(=O)c2cc(C)n(-c3ncc(F)cc3F)c2)c1 [Example 445] | 
0.0621 | CN1CC(Oc2cnc(-c3cc(C(=O)Nc4cc(Cl)cc(NS(C)(=O)=O)c4)cn3CC(F)(F)F)c(F)c2)C1 [Example 638] | 
0.998 | Cc1sc(C(=O)Nc2cc(Cl)cc(NS(C)(=O)=O)c2)cc1-c1ccc(P(C)(C)=O)cn1 [Example 647] | 
0.761 | CS(=O)(=O)Nc1cc(Cl)cc(NC(=O)c2cc(-c3ncccc3F)n(CC(F)(F)F)c2)c1 [Example 564] | 
0.804 | CC(C)n1cc(C(=O)Nc2cc(Cl)cc(NS(C)(=O)=O)c2)cc1-c1ncc(F)cn1 [Example 667] | 
 | Cc1sc(C(=O)Nc2cc(Cl)cc(NS(C)(=O)=O)c2)cc1-c1ncc(F)cc1Cl [Example 359] | EC50 [2, 4]: 0.13 µM
1.86 | Cc1sc(C(=O)Nc2cc(Cl)cc(NS(C)(=O)=O)c2)cc1-c1ncc(F)cc1N1CCC2(CC1)CC2 [Example 507] | 
0.0162 | CN1CC[C@@H](Oc2cnc(-c3cc(C(=O)Nc4cc(Cl)cc(NS(C)(=O)=O)c4)cn3C)c(F)c2)C1 [Example 640] | 

EC50 [2, 3] [µM] | Structure (SMILES) | also measured
> 10 | CCCS(=O)(=O)Nc1cc(Cl)cc(NC(=O)c2cc(-c3ccc(N4CC(F)(F)C4)cn3)n(C)c2)c1 [Example 531] | 
0.21 | Cc1sc(C(=O)Nc2cc(Cl)cc(NS(=O)(=O)CCO)c2)cc1-c1ncc(OC(C)C)cn1 [Example 582] | 
0.387 | COc1ccc(F)c(-c2cc(C(=O)Nc3cc(Cl)cc(NS(C)(=O)=O)c3)cn2C)n1 [Example 703] | 
0.34 | Cn1cc(C(=O)Nc2cc(Cl)cc(NS(C)(=O)=O)c2)cc1-c1c(F)cc(F)c[n+]1[O-] [Example 567] | 
0.471 | Cc1sc(C(=O)Nc2cc(Cl)cc(NS(C)(=O)=O)c2)cc1-c1ncc(P(C)(C)=O)cn1 [Example 648] | 
0.0892 | Cc1sc(C(=O)Nc2cc(Cl)cc(NS(C)(=O)=O)c2)cc1-c1ncccc1OC(C)c1cncc(F)c1 (stereo not shown) [Example 630] | IC50 (LS411N cells): 98.3 nM
0.427 | Cc1cc(C(=O)Nc2cc(Cl)cc(NS(C)(=O)=O)c2)cn1-c1ncc(F)cc1-c1cncc(F)c1 [Example 666] | 
0.427 | Cc1sc(C(=O)Nc2cc(Cl)cc(NS(C)(=O)=O)c2)cc1-c1ncc(OC2CNC2)cc1F [Example 637] | 
6.86 | CC(=O)N1CCN(c2cc(F)cnc2-c2cc(C(=O)Nc3cc(Cl)cc(NS(C)(=O)=O)c3)sc2C)CC1 [Example 504] | 
0.219 | COC1CCN(c2cc(F)cnc2-c2cc(C(=O)Nc3cc(Cl)cc(NS(C)(=O)=O)c3)sc2C)C1 (stereo not shown) [Example 505] | 
0.312 | CS(=O)(=O)Nc1cc(Cl)cc(NC(=O)c2cc(-c3ncc(F)cn3)n(C3CC3)c2)c1 [Example 712] | 
 | CC(Oc1cccnc1-c1cc(C(=O)Nc2cc(Cl)cc(NS(C)(=O)=O)c2)cn1C)c1cc(F)cc(C(F)(F)F)c1 (single isomer, unassigned) [Example 629, N-(3-chloro-5-methanesulfonamidophenyl)-5-{3-[1-[3-fluoro-5-(trifluoromethyl)phenyl]ethoxy]pyridin-2-yl}-1-methyl-1H-pyrrole-3-carboxamide] | IC50 (NCI-H747 cells; NCI-H747, NCI-H747): > 10 µM; IC50 (LS411N cells): 69.2 nM
0.154 | Cc1cc(C(=O)Nc2cc(Cl)cc(NS(C)(=O)=O)c2)cn1-c1ncc(N2CC(F)(F)C2)cc1OC(C)C [Example 672] | 
0.186 | Cc1cc(N2CCC(F)(F)CC2)cnc1-c1cc(C(=O)Nc2cc(Cl)cc(NS(C)(=O)=O)c2)cn1C [Example 600] | 
 | Cn1cc(C(=O)Nc2cc(Cl)cc(NS(C)(=O)=O)c2)cc1-c1ncc(F)cc1OC(F)F [Example 363] | EC50 [2, 4]: 0.171 µM
 | Cc1sc(C(=O)Nc2cc(Cl)cc(NS(C)(=O)=O)c2)cc1-c1c(F)cncc1F [Example 362] | EC50 [2, 4]: 0.124 µM
0.18 | Cc1cc(N2CCC(F)(F)CC2)cnc1-c1cc(C(=O)Nc2cc(Cl)cc(NS(C)(=O)=O)c2)sc1C [Example 602] | 
0.181 | Cn1cc(C(=O)Nc2cc(Cl)cc(NS(C)(=O)=O)c2)cc1-c1ncc(N2CCN(C(=O)C3CC3)CC2)cc1F [Example 714] | 
0.117 | CCc1sc(C(=O)Nc2cc(Cl)cc(NS(C)(=O)=O)c2)cc1-c1ccc(F)cn1 [Example 589] | 
 | CS(=O)(=O)Nc1cc(Cl)cc(NC(=O)c2cc(-c3ccc(C(F)(F)F)cn3)cs2)c1 [Example 370] | EC50 [2, 4]: 0.171 µM
